Experimental data reported in ChEMBL document CHEMBL4507292 (2021).

Tests used:
[1] = target: Galanin receptor type 1 (Homo sapiens) (UniProt P47211); test: Galanin GAL1 Eurofins-Panlabs radioligand binding assay; conditions: Compound concentration 10.0 uM
Homo sapiens [2] = organism: Homo sapiens; test: Calcitonin Gene-Related Peptide CGRP1 Eurofins-Panlabs radioligand binding assay; assay type: protein-complex assay; conditions: Compound concentration 10.0 uM
Bos taurus [3] = organism: Bos taurus; test: (§1) Protein Serine/Threonine Kinase, PKA, Non-Selective Eurofins-Panlabs enzyme assay; assay type: protein-complex assay; set-up: substrate with concentration 370 µg/mL Histone Type III-S, incubation time 15 min, incubation temperature 25 °C
[4] = as §1; assay type: protein-complex assay, Bos taurus; set-up: substrate with concentration 370 µg/mL Histone Type III-S, incubation time 15 min, incubation temperature 25 °C
Rattus norvegicus [5] = organism: Rattus norvegicus; test: Serotonin (5-Hydroxytryptamine) 5-HT1, Non-Selective Eurofins-Panlabs radioligand binding assay; assay type: protein assay; conditions: concentration not given here
Rattus norvegicus [6] = organism: Rattus norvegicus; test: Serotonin (5-Hydroxytryptamine) 5-HT2, Non-Selective Eurofins-Panlabs radioligand binding assay; assay type: protein assay; conditions: Compound concentration 10.0 uM
[7] = target: Beta-1 adrenergic receptor (Homo sapiens) (UniProt P08588); conditions: Compound concentration 10.0 uM
Chain of Beta-1 adrenergic receptor (Homo sapiens) (P08588 whole entry, looked up): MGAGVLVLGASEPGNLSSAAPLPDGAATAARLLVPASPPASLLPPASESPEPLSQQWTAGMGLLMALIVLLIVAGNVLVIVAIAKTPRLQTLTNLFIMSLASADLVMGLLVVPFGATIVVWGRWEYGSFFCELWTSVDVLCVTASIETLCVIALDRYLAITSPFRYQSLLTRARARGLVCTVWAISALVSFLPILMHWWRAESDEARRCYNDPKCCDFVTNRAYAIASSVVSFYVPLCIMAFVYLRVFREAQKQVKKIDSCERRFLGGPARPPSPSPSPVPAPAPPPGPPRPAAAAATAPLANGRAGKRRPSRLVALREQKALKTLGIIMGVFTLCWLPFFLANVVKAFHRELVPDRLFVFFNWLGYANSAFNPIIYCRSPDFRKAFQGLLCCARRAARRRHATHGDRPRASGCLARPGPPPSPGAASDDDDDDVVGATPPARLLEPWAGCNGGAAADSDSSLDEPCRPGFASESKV

[8] = target: T1, 5-hydroxytryptamine receptor 3A (Homo sapiens) (UniProt P46098); test: Inhibition of Serotonin (5-Hydroxytryptamine) 5-HT3 at 10 µM in the Eurofins-Panlabs radioligand binding assay (Eurofins_assay_271910); set-up: ligand concentration 0.69 nM; conditions: Compound concentration 10.0 uM
T1 sequence (whole entry): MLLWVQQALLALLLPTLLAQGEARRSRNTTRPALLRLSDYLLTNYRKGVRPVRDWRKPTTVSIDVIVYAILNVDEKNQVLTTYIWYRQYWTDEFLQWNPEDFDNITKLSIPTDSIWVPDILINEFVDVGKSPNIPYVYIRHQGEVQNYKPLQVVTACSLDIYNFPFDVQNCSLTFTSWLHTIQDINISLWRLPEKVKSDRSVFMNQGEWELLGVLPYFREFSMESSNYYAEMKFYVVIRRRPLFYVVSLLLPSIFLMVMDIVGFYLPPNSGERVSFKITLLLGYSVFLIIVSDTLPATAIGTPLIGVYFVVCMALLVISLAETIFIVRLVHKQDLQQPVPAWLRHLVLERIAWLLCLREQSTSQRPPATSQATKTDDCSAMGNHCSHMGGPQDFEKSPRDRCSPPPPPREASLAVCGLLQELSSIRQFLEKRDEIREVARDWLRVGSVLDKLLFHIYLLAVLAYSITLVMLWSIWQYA

[9] = (§2) Protein Serine/Threonine Kinase, MAPK14 (p38α) Eurofins-Panlabs enzyme assay; set-up: species or system Homo sapiens; substrate with concentration 10 µg/mL Myelin Basic Protein (MBP), incubation time 60 min, incubation temperature 25 °C
Homo sapiens [10] = organism: Homo sapiens; test: as §2; set-up: substrate with concentration 10 µg/mL Myelin Basic Protein (MBP), incubation time 60 min, incubation temperature 25 °C
[11] = target: T2, 5-hydroxytryptamine receptor 2C (Homo sapiens) (UniProt P28335); conditions: Compound concentration 10.0 uM
T2 sequence (whole entry): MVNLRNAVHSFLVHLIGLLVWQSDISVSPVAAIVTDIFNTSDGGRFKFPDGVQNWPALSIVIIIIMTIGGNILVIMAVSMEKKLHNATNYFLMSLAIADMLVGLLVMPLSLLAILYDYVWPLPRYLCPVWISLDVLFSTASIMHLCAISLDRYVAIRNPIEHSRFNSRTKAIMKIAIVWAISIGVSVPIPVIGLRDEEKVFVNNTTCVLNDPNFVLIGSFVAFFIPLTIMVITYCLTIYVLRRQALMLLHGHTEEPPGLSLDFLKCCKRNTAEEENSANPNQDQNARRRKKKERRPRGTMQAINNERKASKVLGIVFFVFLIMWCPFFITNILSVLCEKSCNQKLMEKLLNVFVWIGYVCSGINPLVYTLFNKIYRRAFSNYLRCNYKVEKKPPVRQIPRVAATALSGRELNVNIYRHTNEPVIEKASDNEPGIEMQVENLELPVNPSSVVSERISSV

[12] = Protein Tyrosine Kinase, pp60 c-SRC Eurofins-Panlabs enzyme assay
Caspase-7 (Homo sapiens) = Caspase-7 (Homo sapiens) (UniProt P55210); test: Peptidase, CASP7 (Caspase 7) Eurofins-Panlabs enzyme assay; conditions: Compound concentration 10.0 uM
[13] = target: 5-hydroxytryptamine receptor 2A (Homo sapiens) (UniProt P28223); conditions: Compound concentration 10.0 uM
[14] = target: 5-hydroxytryptamine receptor 4 (Homo sapiens) (UniProt Q13639); test: Inhibition of Serotonin (5-Hydroxytryptamine) 5-HT4 at 10 µM in the Eurofins-Panlabs radioligand binding assay (Eurofins_assay_272000); conditions: Cavia porcellus; Compound concentration 10.0 uM
Chain of 5-hydroxytryptamine receptor 4 (Homo sapiens) (Q13639 whole entry): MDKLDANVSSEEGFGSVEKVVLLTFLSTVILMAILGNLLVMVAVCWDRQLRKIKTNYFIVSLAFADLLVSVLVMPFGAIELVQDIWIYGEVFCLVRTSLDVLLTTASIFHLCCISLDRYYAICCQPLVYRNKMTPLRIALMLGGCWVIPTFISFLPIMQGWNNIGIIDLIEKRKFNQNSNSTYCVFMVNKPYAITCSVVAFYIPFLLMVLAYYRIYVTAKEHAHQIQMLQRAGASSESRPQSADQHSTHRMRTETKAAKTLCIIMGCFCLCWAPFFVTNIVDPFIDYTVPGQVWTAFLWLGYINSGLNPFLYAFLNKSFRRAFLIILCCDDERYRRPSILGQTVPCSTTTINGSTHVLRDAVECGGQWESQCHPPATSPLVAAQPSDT

[15] = target: Estrogen receptor (Homo sapiens) (UniProt P03372); conditions: Compound concentration 10.0 uM
Chain of Estrogen receptor (Homo sapiens) (P03372 whole entry): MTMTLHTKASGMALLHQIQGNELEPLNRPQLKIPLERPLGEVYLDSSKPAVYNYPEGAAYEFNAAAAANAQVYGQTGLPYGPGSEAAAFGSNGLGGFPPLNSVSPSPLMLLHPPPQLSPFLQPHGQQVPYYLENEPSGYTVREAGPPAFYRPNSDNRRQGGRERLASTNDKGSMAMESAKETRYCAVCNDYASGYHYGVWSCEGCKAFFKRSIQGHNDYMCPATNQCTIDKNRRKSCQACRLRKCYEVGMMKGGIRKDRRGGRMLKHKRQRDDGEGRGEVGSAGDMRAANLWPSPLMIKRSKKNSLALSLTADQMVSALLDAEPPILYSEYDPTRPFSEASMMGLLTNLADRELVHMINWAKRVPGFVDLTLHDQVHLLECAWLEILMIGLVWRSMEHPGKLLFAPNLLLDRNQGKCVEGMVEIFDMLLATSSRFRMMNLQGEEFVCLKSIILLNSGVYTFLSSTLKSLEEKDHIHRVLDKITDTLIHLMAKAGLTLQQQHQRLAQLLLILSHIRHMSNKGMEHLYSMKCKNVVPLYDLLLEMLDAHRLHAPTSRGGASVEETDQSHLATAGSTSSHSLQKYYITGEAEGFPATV

[16] = target: Endothelin receptor type B (Homo sapiens) (UniProt P24530); conditions: Compound concentration 10.0 uM
[17] = target: Sodium-dependent dopamine transporter (Homo sapiens, UniProt Q01959); test: Inhibition of Transporter, Dopamine (DAT) at compound concentration of 10.0 uM in the Eurofins-Panlabs radioligand binding assay (Eurofins_assay_220320); set-up: ligand concentration 0.15 nM, non-specific ligand with concentration 10 uM Nomifensine, incubation time 3 h, incubation temperature 4 C
Chain of Sodium-dependent dopamine transporter (Q01959 whole entry): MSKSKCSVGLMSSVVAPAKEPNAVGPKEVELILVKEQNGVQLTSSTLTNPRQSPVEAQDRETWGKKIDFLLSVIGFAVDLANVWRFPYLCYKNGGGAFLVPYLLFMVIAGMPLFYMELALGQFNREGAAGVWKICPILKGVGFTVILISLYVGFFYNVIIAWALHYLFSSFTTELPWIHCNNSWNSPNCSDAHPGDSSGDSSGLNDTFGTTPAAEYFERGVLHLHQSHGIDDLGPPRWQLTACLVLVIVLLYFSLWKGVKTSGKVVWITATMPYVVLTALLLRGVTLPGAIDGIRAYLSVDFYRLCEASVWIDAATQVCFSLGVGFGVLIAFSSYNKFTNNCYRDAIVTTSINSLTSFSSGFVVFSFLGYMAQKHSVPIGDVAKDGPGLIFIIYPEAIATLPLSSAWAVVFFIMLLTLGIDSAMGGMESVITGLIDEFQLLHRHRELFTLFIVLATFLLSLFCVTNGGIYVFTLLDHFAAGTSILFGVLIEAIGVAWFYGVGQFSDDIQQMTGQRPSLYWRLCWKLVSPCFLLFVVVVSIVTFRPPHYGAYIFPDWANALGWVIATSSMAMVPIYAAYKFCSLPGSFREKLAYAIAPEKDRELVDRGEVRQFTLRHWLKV

Bos taurus [18] = organism: Bos taurus; test: (§3) Phosphodiesterase PDE6 Eurofins-Panlabs enzyme assay; set-up: substrate with concentration [3H] cGMP + cGMP, incubation time 20 min, incubation temperature 25 °C
[19] = as §3; set-up: species or system Bos taurus; substrate with concentration [3H] cGMP + cGMP, incubation time 20 min, incubation temperature 25 °C
[20] = target: 5-hydroxytryptamine receptor 1B (Homo sapiens) (UniProt P28222); test: Inhibition of Serotonin (5-Hydroxytryptamine) 5-HT1B at 10 µM in the Eurofins-Panlabs radioligand binding assay (Eurofins_assay_271200); conditions: Compound concentration 10.0 uM
Chain of 5-hydroxytryptamine receptor 1B (Homo sapiens) (P28222 whole entry): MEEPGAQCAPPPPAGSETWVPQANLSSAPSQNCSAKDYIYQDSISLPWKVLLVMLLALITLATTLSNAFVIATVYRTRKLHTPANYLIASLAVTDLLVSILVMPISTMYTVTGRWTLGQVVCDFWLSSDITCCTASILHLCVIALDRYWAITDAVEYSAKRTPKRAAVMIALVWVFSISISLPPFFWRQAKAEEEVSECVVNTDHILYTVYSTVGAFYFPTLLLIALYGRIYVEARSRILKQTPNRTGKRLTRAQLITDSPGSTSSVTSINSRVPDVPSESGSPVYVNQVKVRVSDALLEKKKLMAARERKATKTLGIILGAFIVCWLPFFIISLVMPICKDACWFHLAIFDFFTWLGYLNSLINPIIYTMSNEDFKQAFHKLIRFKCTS

[21] = target: hERG (KCNH2) potassium channel (Homo sapiens, UniProt Q12809); test: Inhibition of Potassium Channel hERG at 10 µM in the Eurofins-Panlabs radioligand binding assay (Eurofins_assay_265900); set-up: ligand concentration 1.5 nM, non-specific ligand with concentration Astemizole, incubation time 60 min, incubation temperature 25 °C; conditions: HEK-293 cells expressing human recombinant hERG, probe [3H] Astemizole, 1.5 nM, compound concentration 10 uM
Chain of hERG (KCNH2) potassium channel (Q12809 whole entry): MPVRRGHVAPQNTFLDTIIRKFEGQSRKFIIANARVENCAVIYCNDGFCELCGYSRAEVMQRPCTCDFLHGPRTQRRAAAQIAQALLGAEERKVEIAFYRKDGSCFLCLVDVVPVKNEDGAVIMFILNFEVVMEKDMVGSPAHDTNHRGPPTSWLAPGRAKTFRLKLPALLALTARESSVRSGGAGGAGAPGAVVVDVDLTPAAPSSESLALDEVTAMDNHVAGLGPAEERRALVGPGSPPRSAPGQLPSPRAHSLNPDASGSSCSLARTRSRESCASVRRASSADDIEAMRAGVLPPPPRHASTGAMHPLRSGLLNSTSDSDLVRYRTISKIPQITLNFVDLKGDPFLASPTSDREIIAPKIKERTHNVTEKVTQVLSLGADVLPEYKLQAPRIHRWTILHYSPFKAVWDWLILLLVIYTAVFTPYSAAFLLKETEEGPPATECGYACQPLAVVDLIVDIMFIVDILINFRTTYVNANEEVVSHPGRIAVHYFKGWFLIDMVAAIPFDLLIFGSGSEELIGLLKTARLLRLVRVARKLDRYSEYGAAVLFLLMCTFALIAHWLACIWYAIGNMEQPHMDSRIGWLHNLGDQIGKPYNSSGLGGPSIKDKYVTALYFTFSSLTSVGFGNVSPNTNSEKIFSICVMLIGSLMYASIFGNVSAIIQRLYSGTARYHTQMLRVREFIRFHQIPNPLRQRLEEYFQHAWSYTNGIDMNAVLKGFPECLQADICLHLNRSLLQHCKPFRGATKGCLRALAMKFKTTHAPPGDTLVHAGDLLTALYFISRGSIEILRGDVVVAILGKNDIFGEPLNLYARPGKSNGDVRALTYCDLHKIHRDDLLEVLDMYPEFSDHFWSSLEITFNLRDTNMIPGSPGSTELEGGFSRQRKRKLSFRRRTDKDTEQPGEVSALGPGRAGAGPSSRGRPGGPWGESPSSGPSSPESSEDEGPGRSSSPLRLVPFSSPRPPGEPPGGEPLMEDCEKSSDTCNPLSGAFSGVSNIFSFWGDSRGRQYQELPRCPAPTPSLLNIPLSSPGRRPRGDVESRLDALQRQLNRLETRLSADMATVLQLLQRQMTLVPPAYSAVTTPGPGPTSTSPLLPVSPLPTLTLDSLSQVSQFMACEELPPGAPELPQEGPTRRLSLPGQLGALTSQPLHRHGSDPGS

[22] = target: monoamine oxidase B (MAO-B) (Homo sapiens, UniProt P27338); test: Inhibition of Monoamine Oxidase MAO-B at compound concentration of 10.0 uM in the Eurofins-Panlabs enzyme assay (Eurofins_assay_140120); set-up: substrate with concentration 50 uM Kynuramine, incubation time 60 min, incubation temperature 37 C; conditions: human recombinant MAO-B expressed in insect Hi5 cells, probe kynuramine, 50 uM, compound concentration 10 uM
[23] = target: C-C chemokine receptor type 5 (Homo sapiens) (UniProt P51681); test: Chemokine CCR5 Eurofins-Panlabs radioligand binding assay; conditions: Compound concentration 10.0 uM
Chain of C-C chemokine receptor type 5 (Homo sapiens) (P51681 whole entry, looked up): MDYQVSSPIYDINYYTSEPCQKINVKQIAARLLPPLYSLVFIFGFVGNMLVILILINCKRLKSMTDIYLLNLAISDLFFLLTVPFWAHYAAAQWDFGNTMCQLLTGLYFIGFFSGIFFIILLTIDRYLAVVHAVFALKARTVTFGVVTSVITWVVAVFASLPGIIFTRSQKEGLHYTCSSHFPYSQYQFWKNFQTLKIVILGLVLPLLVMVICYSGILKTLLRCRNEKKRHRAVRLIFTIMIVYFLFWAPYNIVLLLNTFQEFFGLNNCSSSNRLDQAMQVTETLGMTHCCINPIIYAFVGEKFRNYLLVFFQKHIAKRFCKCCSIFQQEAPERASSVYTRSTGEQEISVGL

[24] = target: Endothelin-1 receptor (Homo sapiens) (UniProt P25101); conditions: Compound concentration 10.0 uM
Chain of Endothelin-1 receptor (Homo sapiens) (P25101 whole entry): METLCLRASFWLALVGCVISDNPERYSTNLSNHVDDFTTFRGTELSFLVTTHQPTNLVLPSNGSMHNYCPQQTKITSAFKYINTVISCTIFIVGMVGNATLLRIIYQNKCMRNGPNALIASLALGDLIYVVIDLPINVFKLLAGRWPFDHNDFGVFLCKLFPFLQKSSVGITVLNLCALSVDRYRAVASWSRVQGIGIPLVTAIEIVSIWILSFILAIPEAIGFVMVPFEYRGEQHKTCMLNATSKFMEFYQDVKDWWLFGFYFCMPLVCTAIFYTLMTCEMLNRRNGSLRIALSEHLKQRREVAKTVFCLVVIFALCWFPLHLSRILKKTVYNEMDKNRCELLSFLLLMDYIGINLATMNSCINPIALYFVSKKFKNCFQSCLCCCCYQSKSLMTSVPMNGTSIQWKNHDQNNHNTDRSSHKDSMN

[25] = target: Somatostatin receptor type 4 (Homo sapiens, UniProt P31391); test: Somatostatin sst4 Eurofins-Panlabs radioligand binding assay; set-up: ligand concentration 0.1 nM, non-specific ligand with concentration 1 µM Somatostatin-14, incubation time 45 min, incubation temperature 25 °C
Chain of Somatostatin receptor type 4 (P31391 whole entry): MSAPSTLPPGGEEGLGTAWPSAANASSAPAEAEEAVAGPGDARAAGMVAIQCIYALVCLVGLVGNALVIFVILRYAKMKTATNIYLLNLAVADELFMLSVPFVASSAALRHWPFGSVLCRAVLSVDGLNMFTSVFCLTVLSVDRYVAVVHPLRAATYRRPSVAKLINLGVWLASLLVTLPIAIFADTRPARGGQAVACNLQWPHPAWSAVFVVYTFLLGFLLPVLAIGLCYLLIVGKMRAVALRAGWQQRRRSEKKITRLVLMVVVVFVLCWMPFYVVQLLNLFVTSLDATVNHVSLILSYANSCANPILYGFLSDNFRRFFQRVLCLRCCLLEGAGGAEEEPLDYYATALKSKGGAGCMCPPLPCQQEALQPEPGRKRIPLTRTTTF

Phosphodiesterase 3 = Phosphodiesterase 3 (Homo sapiens, UniProt Q14432+Q13370); test: Inhibition of Phosphodiesterase PDE3 at compound concentration of 10.0 uM in the Eurofins-Panlabs enzyme assay (Eurofins_assay_152000); assay type: protein assay; set-up: substrate with concentration 1.01 uM [3H] cAMP + cAMP, incubation time 20 min, incubation temperature 25 C
[26] = Compound concentration 100.0 uM

O=C(O)c1cc(-c2ccc(C3CCNCC3)cc2)c2ccc(-c3ccc(C(F)(F)F)cc3)cc2c1 [PPTN]
2.31 µM: IC50 [17]
32.9 µM: IC50 [19]
11.4 µM: IC50 [4]
1.83 µM: Ki [17]
3% (not active): inhibition at 60 min, 10 µM [22]
inactive: inhibition [1] 19% | inhibition (Homo sapiens [2]) 26% | inhibition (Bos taurus [3]; Compound concentration 0.1 uM) -10% | inhibition (Bos taurus [3]; Compound concentration 1.0 uM) 9% | inhibition (Bos taurus [3]; Compound concentration 10.0 uM) 46% | inhibition (Rattus norvegicus [5]) 5% | inhibition (Rattus norvegicus [6]) 0% | inhibition [7] 3% | inhibition [8] 8% | inhibition (Homo sapiens [10]; Compound concentration 0.01 uM) 9% | inhibition (Homo sapiens [10]; Compound concentration 0.1 uM) 0% | inhibition (Homo sapiens [10]; Compound concentration 1.0 uM) -7% | inhibition [11] 20% | inhibition (Caspase-7 (Homo sapiens)) -6% | inhibition [13] 42% | inhibition [14] 11% | inhibition [15] 12% | inhibition [16] -1% | inhibition (Bos taurus [18]; Compound concentration 0.1 uM) 2% | inhibition (Bos taurus [18]; Compound concentration 1.0 uM) 4% | inhibition (Bos taurus [18]; Compound concentration 10.0 uM) 35% | inhibition [20] -4% | inhibition [23] 4% | inhibition [24] 6% | inhibition ([25]; Compound concentration 0.01 uM) -5% | inhibition ([25]; Compound concentration 0.1 uM) 7% | inhibition ([25]; Compound concentration 1.0 uM) 17% | inhibition (Phosphodiesterase 3; Compound concentration 0.1 uM) -7% | inhibition (Phosphodiesterase 3; Compound concentration 1.0 uM) 4% | inhibition (Phosphodiesterase 3; Compound concentration 10.0 uM) 28%
9.02 µM: IC50 [12]
51.5 µM: IC50 (Phosphodiesterase 3)
active: inhibition (Bos taurus [3]; [26]) 91% | inhibition (Bos taurus [18]; [26]) 66% | inhibition ([25]; Compound concentration 10.0 uM) 65% | inhibition (Phosphodiesterase 3; [26]) 59%
0.00294 µM: IC50 [9]
5.3 µM: IC50 [25]
-6% (not active): inhibition at 60 min, 10 µM [21]
